Results taken from patent publication US20220226270A1, “VERY-LONG-CHAIN POLYUNSATURATED FATTY ACIDS, ELOVANOID HYDROXYLATED DERIVATIVES, AND METHODS OF USE” (Board of Supervisors of Louisiana State University and …, priority 2019, published 2022).

Test system: Sprague-Dawley rats, middle cerebral artery occlusion (MCAo)
Test: Experimental ischemic stroke, 2 h middle cerebral artery occlusion (MCAo)
Assay type: in vivo, rat
Settings: for reduction of total lesion volume compared to CSF-treated group: T2WI on day 7, 5 μg/50 μl into right lateral ventricle 1 h after 2 h of MCAo; for IgG staining in the cortex / IgG staining intensity compared with the CSF-treated group: at 7 days; for IgG immunoreactivity in cortex, subcortex and whole hemisphere (total): versus the vehicle group (FIG. 22B); for IgG staining intensity compared with the CSF-treated group: ipsilateral hemisphere
Method: Middle cerebral artery occlusion and cannula implantation into the right lateral ventricle: Male Sprague-Dawley rats (Charles River Lab., Wilmington, Mass.) weighing 280-340 g were fasted overnight but allowed free access to water. Atropine sulfate (0.5 mg/kg, i.p.) was injected 10 mins before anesthesia. Anesthesia was induced with 3% isoflurane in a mixture of 70% nitrous oxide and 30% oxygen. All rats were orally intubated and mechanically ventilated. During ventilation, the animals were paralyzed with pancuronium bromide (0.6 mg/kg, i.p.). The catheters were implanted into the right femoral artery and vein for the blood sampling and infusion of drug. Serial analyses of arterial blood gases, plasma glucose, arterial blood pressure and heart beating rate were conducted before and during surgical procedure. Rectal (CMA/150 Temperature Controller, CMA/Microdialysis AB, Stockholm, Sweden) and cranial (temporalis muscle; Omega Engineering, Stamford, Conn.) temperatures were closely monitored before, during and after MCAo. Rectal temperature and body weight were monitored daily until sacrifice.
Rats underwent 2 h of right middle cerebral artery occlusion (MCAo) by an intraluminal-filament. In brief, the right common carotid artery (CCA) bifurcation was exposed through a midline neck incision and the occipital artery branches of the external carotid artery were isolated, ligated and dissected. After careful isolation of the internal carotid artery (ICA), a 3-0 monofilament coated with poly-L-lysine was advanced through the ICA to the MCA until mild resistance was felt. The neck incision was closed with a silk suture and the animals were then allowed to recover. After 2 h of MCAo, rats were re-anesthetized with the same anesthetic combination. Temperature probes were re-inserted, and intraluminal sutures were carefully removed. The animals given free access to food and water for 7 days.
Thirty minutes after suture removal, a brain infusion cannula was implanted into the right lateral ventricle for treatment administration in each rat. Rats were anesthetized with 3% isoflurane and were secured to a stereotaxic apparatus with skull leveled between bregma and lambda. A sterile stainless steel cannula (5-mm long) was implanted into the lateral ventricle using the stereotaxic coordinates (0.2 mm caudal to bregma, 2 mm lateral to midline, and 5 mm below the dura). Cannulas were removed after treatment was completed.
Treatment: Elovanoids (ELV) as sodium salts (Na) or methyl esters (Me) were dissolved in artificial cerebral spinal fluid (CSF) and administered into right lateral ventricle 1 hour after 2 h of MCAo. The following ELVs were used: ELV-N32-Na, ELV-N32-Me, ELV-N34-Na and ELV-N34-Me (5 μg/50 μl) or CSF (50 μl). All treatments were administered by a researcher blinded to the treatment groups.
Neurological/Behavioral Tests: Behavioral tests were performed by an observer blinded to the treatment groups at 60 mins (during MCAo) and then on days 1, 2, 3 and 7 after MCAo. The battery consisted of two tests that have been used previously to evaluate various aspects of neurologic function: (1) the postural reflex test, to examine upper body posture while the animal is suspended by the tail; and (2) the forelimb placing test, to examine sensorimotor integration in forelimb placing responses to visual, tactile and proprioceptive stimuli. Neurological function was graded on a scale of 0-12 (normal score=0, maximal score=12).
Magnetic resonance imaging (MRI) acquisition and analysis of total lesion, core and penumbra volumes: High resolution ex vivo MRI was performed on 4% paraformaldehyde-fixed brains on day 7 using an 11.7T Bruker Advance 8.9 cm horizontal bore instrument equipped with an 89 mm (ID) receiver coil (Bruker Biospin, Billerica, Mass.). T2 weighted images (T2WI), diffusion weighted images (DWI), 3D volumes, and apparent diffusion coefficient (ADC) maps were collected. T2 and ADC maps were computed from T2WI and DWI, respectively. […]

| Compound | reduction of total lesion volume compared to CSF-treated group | IgG staining in the cortex | IgG immunoreactivity in cortex, subcortex and whole hemisphere (total) | IgG staining intensity compared with the CSF-treated group |
| --- | --- | --- | --- | --- |
| CC/C=C\C[C@H](O)\C=C/C=C/C=C/[C@H](O)C/C=C\C/C=C\CCCCCCCCCCCCCCC(=O)OC [ELV-N34-Me, methyl (16Z,19Z,22R,23E,25E,27Z,29S,31Z)-22,29-dihydroxytetratriaconta-16,19,23,25,27,31-hexaenoate] | 91% | significantly less IgG staining | significantly reduced |  |
| CC/C=C\C[C@H](O)\C=C/C=C/C=C/[C@H](O)C/C=C\C/C=C\CCCCCCCCCCCCCCC(=O)[O-].[Na+] [ELV-N34-Na, sodium (16Z,19Z,22R,23E,25E,27Z,29S,31Z)-22,29-dihydroxytetratriaconta-16,19,23,25,27,31-hexaenoate] | 99% | significantly less IgG staining | significantly reduced |  |
| CC/C=C\C[C@H](O)\C=C/C=C/C=C/[C@H](O)C/C=C\C/C=C\CCCCCCCCCCCCC(=O)OC [ELV-N32-Me, methyl (14Z,17Z,20R,21E,23E,25Z,27S,29Z)-20,27-dihydroxydotriaconta-14,17,21,23,25,29-hexaenoate] | 56% |  |  | similar |
| CC/C=C\C[C@H](O)\C=C/C=C/C=C/[C@H](O)C/C=C\C/C=C\CCCCCCCCCCCCC(=O)[O-].[Na+] [ELV-N32-Na, sodium (14Z,17Z,20R,21E,23E,25Z,27S,29Z)-20,27-dihydroxydotriaconta-14,17,21,23,25,29-hexaenoate] | 60% |  |  | similar |
